The subject of experiment [1] is DIO mice. As to the kind of experiment: Blood glucose following OGTT (AUC) in diet-induced obesity model. It counts as in vivo. The note with it: 4 weeks, p<0.01.
Experiment [2] deals with ob/ob mice. The experiment can be described thus: Blood glucose AUC in ob/ob mice after 14 d linagliptin. The note with it: 3 mg/kg/d.
The test system of experiment [3] is ob/ob mice. As to the kind of experiment: Blinded histological scoring of liver (fat content, markers of inflammation) in ob/ob mice. Particulars: 3 mg/kg/d, 14 d, n=9, p<0.01 vs. control 3±0.18.
Experiment [4] has as its system DIO mice. As to the kind of experiment: Liver fat content by magnetic resonance spectroscopy (MRS) in diet-induced obesity model. It counts as in vivo. An excerpt:
Hepatic steatosis is a hallmark of patients with type 2 diabetes and underlies the pathogenesis of non-alcoholic fatty liver disease (NAFLD). Linagliptin is a selective and non-renal excreted inhibitor of dipeptidyl peptidase-4 (DPP-4). […]. Liver lipid content is detected by magnetic resonance spectroscopy (MRS) in vivo and ex vivo by analysis of liver triglycerides. […]. […] A significant reduction of liver fat content (MRS) is visible as early as 2 weeks on treatment. The correlation between liver lipid content as measured by MRS and hepatic triglyceride levels as measured ex vivo is r2=0.565 (p<0.0001).

The conditions of experiment [5]: metformin on its own, in the diabetic; cited from earlier work.

With `CC#CCn1c(N2CCC[C@@H](N)C2)nc2c1c(=O)n(Cc1nc(C)c3ccccc3n1)c(=O)n2C` [linagliptin, 1-[(4-methyl-quinazolin-2-yl)methyl]-3-methyl-7-(2-butyn-1-yl)-8-(3-(R)-amino-piperidin-1-yl)-xanthine], the “Blood glucose levels following an OGTT (AUC) suppressed” value is on record as 16%-20% in the experiment on DIO mice [1] (3 mg/kg/d) and 20%-26% in the experiment on DIO mice [1] (30 mg/kg/d). The “Blood glucose AUC reduction” value in the experiment with ob/ob mice [2] worked out at 25%. The “Histological score (hepatic steatosis and inflammation)” value with ob/ob mice [3] turned out to be 2.2±0.13. Further, the “Time on treatment at which significant reduction of liver fat content (MRS) is visible” value in the experiment with DIO mice [4] (DIO mice) came out at 2 weeks. For the same compound, in the experiment on DIO mice [4] (DIO mice fed 2 or 3 months, 30 mg/kg/d, and 3 mg/kg/d in 3 month fed mice, 4 weeks), the “Liver fat content (MRS detection)” value was “reduced significantly”.
For the compound `CN(C)C(=N)N=C(N)N` [metformin], in experiment [5], the “Average improvement in the HbA1c value” is 1.0-1.5%.

Source of the values: US20120094894A1, “ANTIDIABETIC MEDICATIONS COMPRISING A DPP-4 INHIBITOR (LINAGLIPTIN) OPTIONALLY IN COMBINATION WITH OTHER ANTIDIABETICS” (BOEHRINGER INGELHEIM INTERNATIONAL GMBH, priority 2009, published 2012).
